Columns and labels:
[1] = Particle-size distribution by laser diffraction; type: physicochemical; conditions: neat MgSt hydrate
Protocol: Particle-size distributions were determined using a laser diffraction system (series 2600, Malvern Instruments Ltd., Malvern, UK) equipped with a 63-mm lens (size range of 1.2-118 μm) and a stirred cell.

[2] = Percent water (free and bound) of neat MgSt hydrates; type: physicochemical; conditions: neat MgSt hydrate
Protocol: Thermal gravimetric analysis (Q50 TGA, TA Instruments) was carried out from 25 to 190° C. at a heating rate of 5° C./min. Data acquisition and analysis were conducted using TA Instruments software. FIG. 4 presents the TGA of MgSt-M and MgSt-D.

With “magnesium stearate [MgSt-M, reference compound]” the “Particle size (nominal mean particle size)” value [1] was 10.6 μm, the Dihydrate water [2] was 0% and the Free water [2] was 0.6%. The Monohydrate water [2] was 2.8% and the percent bound moisture [2] was 2.8%.
For magnesium stearate dihydrate [MgSt-D], the “Particle size (nominal mean particle size)” value [1] was 14.3 μm, the Dihydrate water [2] was 5.6% and the Monohydrate water [2] was 0%. For the same substance, the percent bound moisture [2] was 5.6%, the Free water ([2]; dihydrate) was “little or no free water” and the Free water ([2]; listed as MqSt-D, dihydrate) was 0%.

— US20100316585A1, “Use of Magnesium Stearate Dihydrate for Lubrication of Solid Industrial or Consumer Products” (priority 2008, published 2010)
